Measured values published in US11173151B2, “Substituted triazole derivatives and uses thereof” (BAYER AKTIENGESELLSCHAFT, priority 2017, dated 2021).
Like-named read-outs stand apart in the source and are kept apart here.

Assays:
human V2 receptor = biological target: T1, human V2 receptor (Homo sapiens, UniProt P30518); experiment: Cellular in vitro assay for determining vasopressin receptor activity, V2 receptor cell line (CHO, CRE-luciferase); assay type: cell-based; settings: CHO cell line transfected with human V2 receptor, [Arg8]-vasopressin at EC50 concentration, read-out: IC50 hV2
T1 construct: expressed in transfected cells; host or cells: CHO K1 (ATCC) expressing firefly luciferase under a CRE-responsive promoter
Method: (§1) B-1. Cellular In Vitro Assay for Determining Vasopressin Receptor Activity
(§2) The identification of agonists and antagonists of the V1a and V2 vasopressin receptors from humans, rats and dogs as well as the quantification of the activity of the compounds of the invention is carried out using recombinant cell lines. These cell lines originally derive from a hamster's ovary epithelial cell (Chinese Hamster Ovary, CHO K1, ATCC: American Type Culture Collection, Manassas, Va. 20108, USA). The test cell lines constitutively express the human, rat or dog V1a or V2 receptors. In case of the Gαq-coupled V1a receptors, cells are also stably transfected with a modified form of the calcium-sensitive photoproteins aequorin (human and rat V1a) or obelin (dog V1a), which, after reconstitution with the cofactor coelenterazine, emit light when there are increases in free calcium concentrations [Rizzuto R, Simpson A W, Brini M, Pozzan T, Nature 358, 325-327 (1992); Illarionov B A, Bondar V S, Illarionova V A, Vysotski E S, Gene 153 (2), 273-274 (1995)]. The resulting vasopressin receptor cells react to stimulation of the recombinantly expressed V1a receptors by intracellular release of calcium ions, which can be quantified by the resulting photoprotein luminescence. The Gs-coupled V2 receptors are stably transfected into cell lines expressing the gene for firefly luciferase under control of a CRE-responsible promoter. Activation of V2 receptors induces the activation of the CRE-responsive promoter via cAMP increase, thereby inducing the expression of firefly luciferase. The light emitted by photoproteins of V1a cell lines as well as the light emitted by firefly luciferase of V2 cell lines corresponds to the activation or inhibition of the respective vasopressin receptor. The bioluminescence of the cell lines is detected using a suitable luminometer [Milligan G, Marshall F, Rees S, Trends in Pharmacological Sciences 17, 235-237 (1996)].
Vasopressin V2 Receptor Cell Lines:
On the day before the assay, the cells are plated out in culture medium (DMEM/F12, 2% FCS, 2 mM glutamine, 10 mM HEPES) in 384-well microtiter plates and kept in a cell incubator (96% humidity, 5% v/v CO2, 37° C.). On the day of the assay, test compounds in various concentrations and the agonist [Arg^8]-vasopressin at EC50 concentration are added together to the wells, and plates are incubated for 3 hours in a cell incubator. Upon addition of the cell lysis reagent Triton™ and the substrate luciferin, luminescence of firefly luciferase is measured in a luminometer.
(§3) Table 1A below lists individual IC50 values for the compounds of the invention (including racemic mixtures as well as separated enantiomers) that were obtained from cell lines transfected with the human V1a or V2 receptor: […]

human V1a receptor = biological target: T2, human V1a receptor (Homo sapiens, UniProt P37288); experiment: Cellular in vitro assay for determining vasopressin receptor activity, V1a receptor cell line (CHO, aequorin luminescence); assay type: cell-based; settings: for IC50: CHO cell line transfected with human V1a receptor, [Arg]-vasopressin at EC50 concentration, read-out: IC50 hV1a; for ratio IC50 hV2/hV1a: selectivity ratio IC50 hV2 / IC50 hV1a
T2 construct: expressed in transfected cells; host or cells: CHO K1 (ATCC), also stably transfected with a modified aequorin
Method: as §1, §2
Vasopressin V1a Receptor Cell Lines:
On the day before the assay, the cells are plated out in culture medium (DMEM/F12, 2% FCS, 2 mM glutamine, 10 mM HEPES, 5 μg/ml coelenterazine) in 384-well microtiter plates and kept in a cell incubator (96% humidity, 5% v/v CO2, 37° C.). On the day of the assay, test compounds in various concentrations are placed for 10 minutes in the wells of the microtiter plate before the agonist [Arg]-vasopressin at EC50 concentration is added. The resulting light signal is measured immediately in a luminometer.
as §3

T2 sequence (P37288 whole entry): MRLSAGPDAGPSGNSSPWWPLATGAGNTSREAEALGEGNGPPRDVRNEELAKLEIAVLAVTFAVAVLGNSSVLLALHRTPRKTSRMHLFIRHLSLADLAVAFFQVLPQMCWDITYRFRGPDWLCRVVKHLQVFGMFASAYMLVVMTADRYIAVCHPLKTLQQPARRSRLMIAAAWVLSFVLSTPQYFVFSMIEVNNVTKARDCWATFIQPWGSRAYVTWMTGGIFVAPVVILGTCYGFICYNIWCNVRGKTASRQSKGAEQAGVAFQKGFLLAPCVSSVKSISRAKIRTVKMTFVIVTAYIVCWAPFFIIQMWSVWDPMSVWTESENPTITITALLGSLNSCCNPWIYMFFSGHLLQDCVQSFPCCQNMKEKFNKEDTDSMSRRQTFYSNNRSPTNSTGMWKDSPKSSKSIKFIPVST
T1 sequence (P30518 whole entry): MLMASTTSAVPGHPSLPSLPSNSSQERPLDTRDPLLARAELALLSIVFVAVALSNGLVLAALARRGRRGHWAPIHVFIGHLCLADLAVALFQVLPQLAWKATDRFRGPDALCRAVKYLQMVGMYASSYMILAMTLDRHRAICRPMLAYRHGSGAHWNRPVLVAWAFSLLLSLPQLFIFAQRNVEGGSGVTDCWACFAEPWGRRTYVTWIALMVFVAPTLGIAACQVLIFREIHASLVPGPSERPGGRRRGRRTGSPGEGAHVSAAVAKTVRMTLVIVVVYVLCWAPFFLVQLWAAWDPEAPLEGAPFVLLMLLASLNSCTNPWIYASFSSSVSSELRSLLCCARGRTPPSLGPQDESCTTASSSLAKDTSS

| IC50 (human V2 receptor) [nM] | IC50 (human V1a receptor) [nM] | ratio IC50 hV2/hV1a (human V1a receptor) | IC50 (human V2 receptor; 3 hours) [nM] | SMILES |
| --- | --- | --- | --- | --- |
| 32000 | 750 | 42.7 | – | O=C(c1ncccc1-n1cnc(Cn2nc(-c3ccc(Cl)cc3)n(C[C@@H](O)C(F)(F)F)c2=O)n1)N1CCOC(C(F)(F)F)C1 (stereo partly drawn) [Example 470, 5-(4-Chlorophenyl)-4-[(2R)-3,3,3-trifluoro-2-hydroxypropyl]-2-{[1-(2-{[2-(trifluoromethyl)morpholin-4-yl]carbonyl}pyridin-3-yl)-1H-1,2,4-triazol-3-yl]methyl}-2,4-dihydro-3H-1,2,4-triazol-3-one] |
| – | 19.3 | 64.7 | 1250 | O=C(Nc1ncccc1-n1cnc(Cn2nc(-c3ccc(Cl)cc3)n(C[C@H](O)C(F)(F)F)c2=O)n1)OCC(F)(F)F [Example 167, 2,2,2-Trifluoroethyl {3-[3-({3-(4-chlorophenyl)-5-oxo-4-[(2S)-3,3,3-trifluoro-2-hydroxypropyl]-4,5-dihydro-1H-1,2,4-triazol-1-yl}methyl)-1H-1,2,4-triazol-1-yl]pyridin-2-yl}carbamate] |
| – | 3.95 | 126.6 | 500 | Cc1cccnc1NC(=O)c1ccccc1-n1cnc(Cn2nc(-c3ccc(Cl)cc3)n(C[C@H](O)C(F)(F)F)c2=O)n1 [Example 296, 2-[3-({3-(4-Chlorophenyl)-5-oxo-4-[(2S)-3,3,3-trifluoro-2-hydroxypropyl]-4,5-dihydro-1H-1,2,4-triazol-1-yl}methyl)-1H-1,2,4-triazol-1-yl]-N-(3-methylpyridin-2-yl)benzamide] |
| – | 5.7 | 22.2 | 126 | O=C(NCc1c(F)cccc1F)c1ccccc1-n1cnc(Cn2nc(-c3ccc(Cl)cc3)n(C[C@H](O)C(F)(F)F)c2=O)n1 [Example 242, 2-[3-({3-(4-Chlorophenyl)-5-oxo-4-[(2S)-3,3,3-trifluoro-2-hydroxypropyl]-4,5-dihydro-1H-1,2,4-triazol-1-yl}methyl)-1H-1,2,4-triazol-1-yl]-N-(2,6-difluorobenzyl)benzamide] |
| – | 33.5 | 119.4 | 4000 | CC1CN(C(=O)c2ccccc2-n2cnc(Cn3nc(-c4ccc(Cl)cc4)n(C[C@H](O)C(F)(F)F)c3=O)n2)CCN1C (stereo partly drawn) [Example 267] |
| – | 1.35 | 75.9 | 102 | CCCNC(=O)c1ccccc1-n1cnc(Cn2nc(-c3ccc(Cl)cc3)n(C[C@H](O)C(F)(F)F)c2=O)n1 [Example 320, 2-[3-({3-(4-Chlorophenyl)-5-oxo-4-[(2S)-3,3,3-trifluoro-2-hydroxypropyl]-4,5-dihydro-1H-1,2,4-triazol-1-yl}methyl)-1H-1,2,4-triazol-1-yl]-N-propylbenzamide] |
| 83300 | 280 | 297.6 | – | COCC1CCCN1C(=O)c1ccncc1-n1nc(Cn2nc(-c3ccc(Cl)cc3)n(C[C@H](O)C(F)(F)F)c2=O)nc1C(=O)NCC(C)(C)N (mixture of isomers) [Example 536, N-(2-amino-2-methylpropyl)-3-({3-(4-chlorophenyl)-5-oxo-4-[(2S)-3,3,3-trifluoro-2-hydroxypropyl]-4,5-dihydro-1H-1,2,4-triazol-1-yl}methyl)-1-(4-{[2-(methoxymethyl)pyrrolidin-1-yl]carbonyl}pyridin-3-yl)-1H-1,2,4-triazol-5-carboxamide] |
| – | 125 | 8.1 | 1010 | CC(C)(O)C(=O)Nc1ncccc1-n1cnc(Cn2nc(-c3ccc(Cl)cc3)n(C[C@H](O)C(F)(F)F)c2=O)n1 [Example 145] |
| – | 33.5 | 30.0 | 1010 | CCc1cc(C(=O)Nc2ncccc2-n2cnc(Cn3nc(-c4ccc(Cl)cc4)n(C[C@H](O)C(F)(F)F)c3=O)n2)on1 [Example 140] |

More lines, now with the values behind:

| SMILES | IC50 (human V2 receptor) [nM] | IC50 (human V1a receptor) [nM] | ratio IC50 hV2/hV1a (human V1a receptor) | IC50 (human V2 receptor; 3 hours) [nM] |
| --- | --- | --- | --- | --- |
| CC1C=CC(C)N1C(=O)c1ccccc1-n1cnc(Cn2nc(-c3ccc(Cl)cc3)n(C[C@H](O)C(F)(F)F)c2=O)n1 (stereo partly drawn) [Example 293, 5-(4-Chlorophenyl)-2-[(1-{2-[(2,5-dimethyl-2,5-dihydro-1H-pyrrol-1-yl)carbonyl]phenyl}-1H-1,2,4-triazol-3-yl)methyl]-4-[(2S)-3,3,3-trifluoro-2-hydroxypropyl]-2,4-dihydro-3H-1,2,4-triazol-3-one] | – | 4.7 | 178.7 | 840 |
| O=C(Nc1cccnc1-n1cnc(Cn2nc(-c3ccc(Cl)cc3)n(C[C@H](O)C(F)(F)F)c2=O)n1)C1CC1F (single isomer, unassigned) [Example 56] | – | 4.4 | 92.0 | 405 |
| CSCC(=O)Nc1ncccc1-n1cnc(Cn2nc(-c3ccc(Cl)cc3)n(C[C@H](O)C(F)(F)F)c2=O)n1 [Example 149] | – | 12.4 | 153.2 | 1900 |
| O=C(Nc1ncccc1-n1cnc(Cn2nc(-c3ccc(Cl)cc3)n(C[C@H](O)C(F)(F)F)c2=O)n1)C1CCCCCC1 [Example 156] | – | 66 | 20.5 | 1350 |
| O=C(c1ccccc1-n1cnc(Cn2nc(-c3ccc(Cl)cc3)n(C[C@H](O)C(F)(F)F)c2=O)n1)N1CCC(O)C1 (mixture of isomers) [Example 298, 5-(4-Chlorophenyl)-2-{[1-(2-{[3-hydroxypyrrolidin-1-yl]carbonyl}phenyl)-1H-1,2,4-triazol-3-yl]methyl}-4-[(2S)-3,3,3-trifluoro-2-hydroxypropyl]-2,4-dihydro-3H-1,2,4-triazol-3-one] | – | 3.3 | 468.2 | 1540 |
| COCC1CCCN1C(=O)c1ccncc1-n1cnc(Cn2nc(-c3ccc(Cl)cc3)n(C[C@H](O)C(F)(F)F)c2=O)n1 (mixture of isomers) [Example 493, 5-(4-Chlorophenyl)-2-{[1-(4-{[2-(methoxymethyl)pyrrolidin-1-yl]carbonyl}pyridin-3-yl)-1H-1,2,4-triazol-3-yl]methyl}-4-[(2S)-3,3,3-trifluoro-2-hydroxypropyl]-2,4-dihydro-3H-1,2,4-triazol-3-one] | 7300 | 13.5 | 540.7 | – |
| O=C(Nc1ncccc1-n1cnc(Cn2nc(-c3ccc(Cl)cc3)n(C[C@H](O)C(F)(F)F)c2=O)n1)C1CCCCC1 [Example 159] | – | 52.5 | 35.2 | 1850 |
| O=C(c1ncccc1-n1cnc(Cn2nc(-c3ccc(Cl)cc3)n(C[C@H](O)C(F)(F)F)c2=O)n1)N1CCNC(C(F)(F)F)C1 (mixture of isomers) [Example 448, 5-(4-Chlorophenyl)-4-[(2S)-3,3,3-trifluoro-2-hydroxypropyl]-2-{[1-(2-{[3-(trifluoromethyl)piperazin-1-yl]carbonyl}pyridin-3-yl)-1H-1,2,4-triazol-3-yl]methyl}-2,4-dihydro-3H-1,2,4-triazol-3-one] | 2700 | 165 | 16.4 | – |
| O=C1CCC(NC(=O)c2ccccc2-n2cnc(Cn3nc(-c4ccc(Cl)cc4)n(CC(O)C(F)(F)F)c3=O)n2)CN1 (single isomer, unassigned) [Example 193, 2-[3-({3-(4-Chlorophenyl)-5-oxo-4-[3,3,3-trifluoro-2-hydroxypropyl]-4,5-dihydro-1H-1,2,4-triazol-1-yl}methyl)-1H-1,2,4-triazol-1-yl]-N-[6-oxopiperidin-3-yl]benzamide] | – | 80 | 38.8 | 3100 |
